Patent publication US12540131B2 (Merck Sharp & Dohme LLC, priority 2019, dated 2026)

Target: GST tagged truncated human mutant G2019S LRRK2 (Homo sapiens (Human), UniProt Q5S007, G2019S)
Assay: LRRK2 Km ATP LanthaScreen Assay
Format: biochemical
Settings: G2019S LRRK2, 134 μM ATP (Km ATP), mean values; for IC50: read-out: LRRK2 pIC50 (converted)
How it was run: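 Enzyme (GST-tagged, truncated) was preincubated with compound for 15 min at RT in 50 mM Tris pH 8.5, 10 mM MgCl2, 0.01% Brij-35, 1 mM EGTA, 2 mM DTT and 0.05 mM orthovanadate. Fluorescein-LRRKtide and 134 μM ATP (Km) were then added for 90 min. EDTA and Tb-anti-pERM antibody stopped the reaction; the TR-FRET 520/495 ratio gave 4-parameter IC50s, reported as mean pIC50.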

Chain of GST tagged truncated human mutant G2019S LRRK2 (Q5S007 970-2527 G2019S): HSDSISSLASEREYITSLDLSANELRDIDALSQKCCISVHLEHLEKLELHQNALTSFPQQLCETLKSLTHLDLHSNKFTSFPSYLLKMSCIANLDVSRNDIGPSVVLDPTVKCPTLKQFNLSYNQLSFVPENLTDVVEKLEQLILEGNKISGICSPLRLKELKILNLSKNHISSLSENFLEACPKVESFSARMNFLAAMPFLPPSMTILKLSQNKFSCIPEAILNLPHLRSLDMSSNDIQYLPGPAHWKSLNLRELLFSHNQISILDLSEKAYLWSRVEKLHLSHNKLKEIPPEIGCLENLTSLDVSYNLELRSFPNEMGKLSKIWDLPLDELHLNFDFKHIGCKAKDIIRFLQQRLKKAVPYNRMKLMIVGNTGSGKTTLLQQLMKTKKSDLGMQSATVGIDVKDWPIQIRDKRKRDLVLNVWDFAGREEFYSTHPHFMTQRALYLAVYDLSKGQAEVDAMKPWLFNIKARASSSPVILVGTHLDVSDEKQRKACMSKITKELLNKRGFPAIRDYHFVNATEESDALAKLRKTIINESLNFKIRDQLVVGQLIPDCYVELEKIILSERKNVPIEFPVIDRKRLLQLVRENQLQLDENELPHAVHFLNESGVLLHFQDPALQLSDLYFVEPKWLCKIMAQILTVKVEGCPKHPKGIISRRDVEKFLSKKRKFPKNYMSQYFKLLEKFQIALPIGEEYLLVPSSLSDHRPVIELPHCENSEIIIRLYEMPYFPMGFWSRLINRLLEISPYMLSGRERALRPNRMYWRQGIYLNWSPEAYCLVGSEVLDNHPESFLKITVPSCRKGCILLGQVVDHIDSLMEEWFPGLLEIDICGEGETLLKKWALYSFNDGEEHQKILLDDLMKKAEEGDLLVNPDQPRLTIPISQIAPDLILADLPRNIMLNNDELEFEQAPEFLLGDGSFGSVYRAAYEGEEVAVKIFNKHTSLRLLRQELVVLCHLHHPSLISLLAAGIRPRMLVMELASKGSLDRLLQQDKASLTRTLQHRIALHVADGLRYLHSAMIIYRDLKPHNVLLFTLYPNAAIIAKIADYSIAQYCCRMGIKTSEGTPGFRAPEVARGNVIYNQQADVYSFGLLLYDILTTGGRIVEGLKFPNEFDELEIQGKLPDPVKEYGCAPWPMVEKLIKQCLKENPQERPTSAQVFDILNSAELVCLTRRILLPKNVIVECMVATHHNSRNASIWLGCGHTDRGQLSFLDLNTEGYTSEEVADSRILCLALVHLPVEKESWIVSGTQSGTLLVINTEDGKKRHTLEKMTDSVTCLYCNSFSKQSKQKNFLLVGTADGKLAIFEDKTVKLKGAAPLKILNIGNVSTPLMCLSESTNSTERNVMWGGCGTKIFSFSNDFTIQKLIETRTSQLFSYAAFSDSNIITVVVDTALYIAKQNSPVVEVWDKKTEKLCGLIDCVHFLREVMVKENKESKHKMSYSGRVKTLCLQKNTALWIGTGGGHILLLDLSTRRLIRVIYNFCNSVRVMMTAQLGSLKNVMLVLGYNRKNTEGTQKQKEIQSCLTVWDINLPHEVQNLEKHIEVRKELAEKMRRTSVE

Row | Compound | LRRK2 pIC50 | IC50 [nM]
1 | Cc1cc2cnc(Nc3cnn(C)c3Cl)nc2cc1C1CCN([C@]2(C)COC[C@@H]2O)CC1 (single isomer, unassigned) [Ex-2.80, (3S,4S) or (3R,4R) 4-(4-{2-[(5-chloro-1-methyl-1H-pyrazol-4-yl)amino]-6-methylquinazolin-7-yl}piperidin-1-yl)-4-methyloxolan-3-ol] | 7.14 | 
2 | Cc1cc2cnc(Nc3cnn(C)c3C)nc2cc1C1CCN([C@]2(C)COC[C@@H]2O)CC1 (single isomer, unassigned) [Ex-2.81, (3S,4S) or (3R,4R) 4-(4-{2-[(1,5-dimethyl-1H-pyrazol-4-yl)amino]-6-methylquinazolin-7-yl}piperidin-1-yl)-4-methyloxolan-3-ol] | 7.35 | 
3 | Cn1ncc(Nc2ncc3cc(Cl)c(C4CCN([C@]5(C)COC[C@@H]5O)CC4)cc3n2)c1C(F)F (single isomer, unassigned) [Ex-2.82, (3S,4S) or (3R,4R) 4-[4-(6-chloro-2-{[5-(difluoromethyl)-1-methyl-1H-pyrazol-4-yl]amino}quinazolin-7-yl)piperidin-1-yl]-4-methyloxolan-3-ol] | >9.20 | 
4 | Cn1nc(C(C)(C)C)cc1Nc1ncc2cc(Cl)c(C3CCN([C@]4(C)COC[C@@H]4O)CC3)cc2n1 (single isomer, unassigned) [Ex-2.83, (3S,4S) or (3R,4R) 4-(4-{2-[(3-tert-butyl-1-methyl-1H-pyrazol-5-yl)amino]-6-chloroquinazolin-7-yl}piperidin-1-yl)-4-methyloxolan-3-ol] | 8.71 | 
5 | C[C@@]1(N2CCC(c3cc4nc(Nc5ccnn5C5CC5(F)F)ncc4cc3Cl)CC2)COC[C@@H]1O (single isomer, unassigned) [Ex-2.84, (S)(3S,4S) or (S)(3R,4R) or (R)(3S,4S) or (R)(3R,4R) 4-[4-(6-chloro-2-{[1-(2,2-difluorocyclopropyl)-1H-pyrazol-5-yl]amino}quinazolin-7-yl)piperidin-1-yl]-4-methyloxolan-3-ol] | 8.80 | 
6 | C[C@@]1(N2CCC(c3cc4nc(Nc5ccnn5C5CC5)ncc4cc3Cl)CC2)COC[C@@H]1O (single isomer, unassigned) [Ex-2.85, (3S,4S) or (3R,4R) 4-(4-{6-chloro-2-[(1-cyclopropyl-1H-pyrazol-5-yl)amino]quinazolin-7-yl}piperidin-1-yl)-4-methyloxolan-3-ol] | 9.03 | 
7 | Cc1nn(C)c(Nc2ncc3cc(Cl)c(C4CCN([C@]5(C)COC[C@@H]5O)CC4)cc3n2)c1C#N (single isomer, unassigned) [Ex-2.86, (3S,4S) or (3R,4R) 5-({6-chloro-7-[1-(4-hydroxy-3-methyloxolan-3-yl)piperidin-4-yl]quinazolin-2-yl}amino)-l,3-dimethyl-1H-pyrazole-4-carbonitrile] | 8.05 | 
8 | C[C@@]1(N2CCC(c3cc4nc(Nc5ccnn5C5CC5(F)F)ncc4cc3Cl)CC2)COC[C@@H]1O (single isomer, unassigned) [Ex-2.87, (S)(3S,4S) or (S)(3R,4R) or (R)(3S,4S) or (R)(3R,4R) 4-[4-(6-chloro-2-{[1-(2,2-difluorocyclopropyl)-1H-pyrazol-5-yl]amino}quinazolin-7-yl)piperidin-1-yl]-4-methyloxolan-3-ol] | 8.04 | 
9 | CC1(n2ncc(Nc3ncc4cc(Cl)c(C5CCN([C@]6(C)COC[C@@H]6O)CC5)cc4n3)c2Cl)CC1 (single isomer, unassigned) [Ex-2.88, (3S,4S) or (3R,4R) 4-[4-(6-chloro-2-{[5-chloro-1-(1-methylcyclopropyl)-1H-pyrazol-4-yl]amino}quinazolin-7-yl)piperidin-1-yl]-4-methyloxolan-3-ol] | >9.20 | 
10 | Cn1nc(C(F)(F)F)cc1Nc1ncc2cc(Cl)c(C3CCN([C@]4(C)COC[C@@H]4O)CC3)cc2n1 (single isomer, unassigned) [Ex-2.89, (3S,4S) or (3R,4R) 4-[4-(6-chloro-2-{[1-methyl-3-(trifluoromethyl)-1H-pyrazol-5-yl]amino}quinazolin-7-yl)piperidin-1-yl]-4-methyloxolan-3-ol] | 7.39 | 
11 | Cn1ncc(Nc2ncc3cc(Cl)c(C4CCN([C@]5(C)COC[C@@H]5O)CC4)cc3n2)c1C(F)(F)F (single isomer, unassigned) [Ex-2.90, (3S,4S) or (3R,4R) 4-(4-(6-chloro-2-((1-methyl-5-(trifluoromethyl)-1H-pyrazol-4-yl)amino)quinazolin-7-yl)piperidin-1-yl)-4-methyltetrahydrofuran-3-olyl)piperidin-1-yl]-4-methyloxolan-3-ol] | >9.20 | 
12 | C[C@@]1(N2CCC(c3cc4nc(Nc5cnn(C6CC6)c5C(F)F)ncc4cc3Cl)CC2)COC[C@@H]1O (single isomer, unassigned) [Ex-2.91, (3S,4S) or (3R,4R) 4-[4-(6-chloro-2-{[1-cyclopropyl-5-(difluoromethyl)-1H-pyrazol-4-yl]amino}quinazolin-7-yl)piperidin-1-yl]-4-methyloxolan-3-ol] | >9.20 | 
13 | CC1(N2CCC(n3ncc(Nc4ncc5cc(Cl)c(C6CC6(F)F)cc5n4)c3Cl)C(F)C2)COC1 (single isomer, unassigned) [Ex-3.1, (3R,4R)(7S) or (3R,4R)(7R) or (3S,4S)(7S) or (3S,4S)(7R) 6-chloro-N-(5-chloro-1-(3-fluoro-1-(3-methyloxetan-3-yl)piperidin-4-yl)-1H-pyrazol-4-yl)-7-(2,2-difluorocyclopropyl)quinazolin-2-amine] | 7.54 | 
14 | CC1(N2CCC(n3ncc(Nc4ncc5cc(Cl)c(C6CC6(F)F)cc5n4)c3Cl)C(F)C2)COC1 (single isomer, unassigned) [Ex-3.2, (3R,4R)(7S) or (3R,4R)(7R) or (3S,4S)(7S) or (3S,4S)(7R) 6-chloro-N-(5-chloro-1-(3-fluoro-1-(3-methyloxetan-3-yl)piperidin-4-yl)-1H-pyrazol-4-yl)-7-(2,2-difluorocyclopropyl)quinazolin-2-amine] | 7.07 | 
15 | F[C@@H]1CNCC[C@H]1c1cc2nc(Nc3cnn(C4CC4)c3Cl)ncc2cc1Cl (single isomer, unassigned) [Ex-4.2, (3S,4S) or (3R,4R) 6-chloro-N-(5-chloro-1-cyclopropyl-1H-pyrazol-4-yl)-7-(3-fluoropiperidin-4-yl)quinazolin-2-amine] |  | < 0.631
16 | CCN1CC[C@@H](c2cc3nc(Nc4cnn(CC(C)(C)O)c4Cl)ncc3cc2Cl)[C@H](F)C1 (single isomer, unassigned) [Ex-4.4, (3S,4S) or (3R,4R) 1-(5-chloro-4-((6-chloro-7-(1-ethyl-3-fluoropiperidin-4-yl)quinazolin-2-yl)amino)-1H-pyrazol-1-yl)-2-methylpropan-2-ol] | 8.88 | 
17 | CCN1CC[C@@H](c2cc3nc(Nc4cnn(CC(C)(C)O)c4Cl)ncc3cc2Cl)[C@H](F)C1 (single isomer, unassigned) [Ex-4.5, (3S,4S) or (3R,4R) 1-(5-chloro-4-((6-chloro-7-(1-ethyl-3-fluoropiperidin-4-yl)quinazolin-2-yl)amino)-1H-pyrazol-1-yl)-2-methylpropan-2-ol] |  | 1.62
18 | O[C@@H]1COCC1N1CC[C@H](c2cc3nc(Nc4cnn(C5CC5(F)F)c4Cl)ncc3cc2Cl)[C@@H](F)C1 (single isomer, unassigned) [Ex-4.9, (R)(3S,4S)(3S,4S) or (R)(3S,4S)(3R,4R) or (R)(3R,4R)(3S,4S) or (R)(3R,4R)(3R,4R) or (S)(3S,4S)(3S,4S) or (S)(3S,4S)(3R,4R) or (S)(3R,4R)(3S,4S) or (S)(3R,4R)(3R,4R) 4-(4-(6-chloro-2-((5-chloro-1-(2,2-difluorocyclopropyl)-1H-pyrazol-4-yl)amino)quinazolin-7-yl)-3-fluoropiperidin-1-yl)tetrahydrofuran-3-ol] | >9.20 | 
19 | CC1(N2CC[C@H](c3cc4nc(Nc5cnn(C6CC6(F)F)c5Cl)ncc4cc3Cl)[C@@H](F)C2)COC[C@@H]1O (single isomer, unassigned) [Ex-4.10, (R)(3S,4S)(3S,4S) or (R)(3S,4S)(3R,4R) or (R)(3R,4R)(3S,4S) or (R)(3R,4R)(3R,4R) or (S)(3S,4S)(3S,4S) or (S)(3S,4S)(3R,4R) or (S)(3R,4R)(3S,4S) or (S)(3R,4R)(3R,4R) 4-(6-chloro-2-((5-chloro-1-(2,2-difluorocyclopropyl)-1H-pyrazol-4-yl)amino)quinazolin-7-yl)-3-fluoropiperidin-1-yl)-4-methyltetrahydrofuran-3-ol] | >9.20 | 
20 | CC1(N2CC[C@H](c3cc4nc(Nc5cnn(C6CC6(F)F)c5Cl)ncc4cc3Cl)[C@@H](F)C2)COC[C@@H]1O (single isomer, unassigned) [Ex-4.11, (R)(3S,4S)(3S,4S) or (R)(3S,4S)(3R,4R) or (R)(3R,4R)(3S,4S) or (R)(3R,4R)(3R,4R) or (S)(3S,4S)(3S,4S) or (S)(3S,4S)(3R,4R) or (S)(3R,4R)(3S,4S) or (S)(3R,4R)(3R,4R) 4-(6-chloro-2-((5-chloro-1-(2,2-difluorocyclopropyl)-1H-pyrazol-4-yl)amino)quinazolin-7-yl)-3-fluoropiperidin-1-yl)-4-methyltetrahydrofuran-3-ol] | 8.73 | 
21 | Cc1c(Nc2ncc3cc(Cl)c(C4CCN(CC(O)C(F)(F)F)CC4)cc3n2)cnn1C1CC1 (single isomer, unassigned) [Ex-4.12, (R) or (S) 3-(4-(6-chloro-2-((1-cyclopropyl-5-methyl-1H-pyrazol-4-yl)amino)quinazolin-7-yl)piperidin-1-yl)-1,1,1-trifluoropropan-2-ol] |  | < 0.631
22 | CN1CC[C@@H](c2cc3nc(Nc4cnn(CC(C)(C)O)c4Cl)ncc3cc2Cl)[C@H](F)C1 (single isomer, unassigned) [Ex-4.22, (3S,4S) or (3R,4R) 1-(5-chloro-4-{[6-chloro-7-(3-fluoro-1-methylpiperidin-4-yl)quinazolin-2-yl]amino}-1H-pyrazol-1-yl)-2-methylpropan-2-ol] | >9.20 | 
